Measurements published in patent US9969775B2, “CGRP antagonist peptides” (Ferring B.V., priority 2015, dated 2018).
Numbered stars: 1 amine (or outer) side, 2 acyl side, 3 side chain; on linkers, the order of the positions; unused ones are H or OH. Bridge positions count the residues as written; N and C are the ends. Square brackets hold non-standard residues; d marks the D form. Peptide text beside a SMILES is read from it. * marks the point of attachment. Phe(2-CONH2) = NC(=O)c1ccccc1C[C@H](N)C(=O)O; X5 = O=C([C@H](Cc1ccc(CO)cc1)N[*:1])[*:2]; Picolinoyl(3,5-F2) = O=C(c1ncc(F)cc1F)*; Picolinoyl(5-F) = O=C(c1ccc(F)cn1)*; Lys(Me2) = CN(C)CCCC[C@H](N)C(=O)O; Orn(iPr) = CC(C)NCCC[C@H](N)C(=O)O; Oxazole2carbonyl = O=C(c1ncco1)*; 3Pal = N[C@@H](Cc1cccnc1)C(=O)O; Picolinoyl = O=C(c1ccccn1)*; ΔPro = O=C(O)[C@@H]1C=CCN1; Orn = NCCC[C@H](N)C(=O)O; X7 = O=C(c1cc(F)ccn1)*; X1 = O=C(c1ncccc1F)*; X6 = O=C(c1ccncn1)*

Experiments:
[1] = target: T1, hAM2 receptor (CALCRL:RAMP3) (Homo sapiens, UniProt O60896+Q16602); assay: AM2 receptor antagonist activity measured by cAMP assay (HTRF); type: cell-based; conditions: for Emax: % MPE: percent of the maximal possible effect, read-out: hAM2-R Efficacy Antag (%) Ave; for Emax / IC50: agonist human adrenomedullin; for IC50: GeneBLAzer CALCRL:RAMP3-CRE-bla Freestyle 293F cells, read-out: hAM2-R IC50 Ave; for selectivity ratio CGRP/AM2: selectivity ratio for hCGRP over hAM2, calculated from the IC50 values
T1 construct: expressed in transfected cells; host or cells: GeneBLAzer CALCRL:RAMP3-CRE-bla Freestyle 293F

[2] = target: T2, hCGRP receptor (CALCRL:RAMP1) (Homo sapiens, UniProt O60894+Q16602); assay: CGRP receptor antagonist activity measured by cAMP assay (HTRF); type: cell-based; conditions: agonist human α-CGRP; for Emax: % MPE: percent of the maximal possible effect, read-out: hCGRP-R Efficacy Antag (%) Ave; for IC50: GeneBLAzer CALCRL:RAMP1-CRE-bla Freestyle 293F cells, 30 minutes, read-out: hCGRP-R IC50 Ave
T2 construct: host or cells: GeneBLAzer CALCRL:RAMP1-CRE-bla Freestyle 293F
Description: Example 6: CGRP Receptor Antagonist Activity Measured by cAMP Assay
CGRP receptor agonists increase intracellular cyclic adenosine mono-phosphate (cAMP). CGRP receptor antagonists can reduce the agonist effect. Antagonist activity was assessed by measurement of cyclic adenosine mono-phosphate (cAMP) using cell line stably expressing the hCGRP receptor (GeneBLAzer® CALCRL:RAMP1-CRE-bla Freestyle™ 293F, Invitrogen). hCGRP receptor expressing cells were maintained in DMEM high-glucose with GlutaMAX™ containing 10% (v/v) FBS, 0.1 mM NEAA, 25 mM HEPES, 5 ug/ml Blasticidin, 100 ug/ml Hygromycin, and 400 ug/ml Geneticin at 37° C. under 5% CO2 in a humidified atmosphere. For cAMP measurement, cells were washed once with 5 ml 1×PBS, cell maintenance media was replaced with compound buffer ((CB): DMEM containing 0.1% BSA and 0.5 mM IBMX), and flasks were incubated for 1 hour at 37° C. under 5% CO2 in a humidified atmosphere. Cells were removed from culture flasks using non-enzymatic cell dissociation buffer and harvested in CB. The reaction was performed in 384 well white small volume plates (Greiner) at a density of 10,000 cells/well. Cells were exposed to varying concentrations of antagonist compounds for 30 minutes in the presence of a fixed concentration of agonist (human α-CGRP). cAMP levels were measured using an HTRF (homogeneous time resolved fluorescence)-based competitive cAMP immunoassay (cAMP Dynamic 2 Kit, Cisbio), according to the manufacturer's instructions. […] Reported parameters include antagonist potency IC50 (the concentration causing half-maximal inhibition of the agonist response for antagonist compounds) and efficacy (% MPE: percent of the maximal possible effect).

T2 sequence (Q16602 23-461): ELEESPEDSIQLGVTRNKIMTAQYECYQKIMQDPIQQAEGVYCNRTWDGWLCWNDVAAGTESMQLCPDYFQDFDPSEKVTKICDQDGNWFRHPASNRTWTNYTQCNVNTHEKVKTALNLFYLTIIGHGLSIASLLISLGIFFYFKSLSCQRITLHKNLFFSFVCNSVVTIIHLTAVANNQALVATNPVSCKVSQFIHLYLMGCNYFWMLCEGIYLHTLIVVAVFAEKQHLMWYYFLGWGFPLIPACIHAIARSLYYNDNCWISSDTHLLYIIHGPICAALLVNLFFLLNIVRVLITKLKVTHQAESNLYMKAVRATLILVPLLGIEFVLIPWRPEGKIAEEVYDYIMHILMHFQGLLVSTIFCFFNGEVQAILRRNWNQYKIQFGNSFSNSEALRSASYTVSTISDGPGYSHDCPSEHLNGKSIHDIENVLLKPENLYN
T2 sequence (O60894 27-148): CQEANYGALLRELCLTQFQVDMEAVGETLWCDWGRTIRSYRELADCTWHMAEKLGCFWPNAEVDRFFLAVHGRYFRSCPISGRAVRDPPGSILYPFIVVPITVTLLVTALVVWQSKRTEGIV
T1 sequence (Q16602 23-461): as the sequence (Q16602 23-461) above
T1 sequence (O60896 24-148): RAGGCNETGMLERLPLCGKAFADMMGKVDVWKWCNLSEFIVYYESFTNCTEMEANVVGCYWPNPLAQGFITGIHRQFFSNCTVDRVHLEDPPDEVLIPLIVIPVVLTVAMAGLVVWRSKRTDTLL

Compound | Emax [1] [%] | IC50 [1] [nM] | selectivity ratio CGRP/AM2 [1] | Emax [2] [%] | IC50 [2] [nM]
CC(C)[C@@H]1NC(=O)[C@H](CC(=O)O)NC(=O)[C@H](CCCNC(=N)N)NC(=O)[C@@H](NC(=O)[C@H](Cc2ccc(O)cc2)NC(=O)[C@H](NC(=O)c2ccccn2)C(C)C)CSSC[C@@H](C(=O)N[C@@H](Cc2cccnc2)C(N)=O)NC(=O)[C@H](Cc2cccnc2)NC(=O)[C@@H]2CCCN2C(=O)CNC1=O [Compound 3, Picolinoyl-D-Val-Tyr-c(Cys-Arg-Asp-Val-Gly-Pro-3Pal-Cys)-3Pal-NH2] (Picolinoyl-[dV]YCRDVGP[3Pal]C[3Pal]-NH2; disulfide 3-10) | 101 | 35 | 285 | 100 | 0.12
CC(C)[C@@H]1NC(=O)[C@H](CC(=O)O)NC(=O)[C@H](CCCNC(=O)[C@@H](N)CCCCN(C)C)NC(=O)[C@@H](NC(=O)[C@H](Cc2ccc(O)cc2)NC(=O)[C@H](NC(=O)c2ccncn2)C(C)C)CSSC[C@@H](C(=O)N[C@@H](Cc2cccnc2)C(N)=O)NC(=O)[C@H](Cc2ccccc2)NC(=O)[C@@H]2CCCN2C(=O)CNC1=O [Compound 45, Pyrimidine-4-carbonyl-D-Val-Tyr-c(Cys-Orn(Lys(Me2))-Asp-Val-Gly-Pro-Phe-Cys)-3Pal-NH2] (X6-[dV]YC[Orn](Lys(Me2))DVGPFC[3Pal]-NH2; disulfide 3-10) | 98 | 198 | 1082 | 100 | 0.18
CC(C)NCCC[C@@H]1NC(=O)[C@@H](NC(=O)[C@H](Cc2ccccc2C(N)=O)NC(=O)[C@H](NC(=O)c2ccc(F)cn2)C(C)C)CSSC[C@@H](C(=O)N[C@@H](Cc2cccnc2)C(N)=O)NC(=O)[C@H](Cc2ccccc2C(N)=O)NC(=O)[C@@H]2C=CCN2C(=O)CNC(=O)[C@H](C(C)C)NC(=O)[C@H](CC(=O)O)NC1=O [Compound 66, Picolinoyl(5-F)-D-Val-Phe(2-Cbm)-c(Cys-Orn(iPr)-Asp-Val-Gly-Dhp-Phe(2-Cbm)-Cys)-3Pal-NH2] ({Picolinoyl(5-F)}-[dV][Phe(2-CONH2)]C[Orn(iPr)]DVG[ΔPro][Phe(2-CONH2)]C[3Pal]-NH2; disulfide 3-10) | 100 | 84 | 1027 | 101 | 0.08
CC(C)NCCC[C@@H]1NC(=O)[C@@H](NC(=O)[C@H](Cc2ccccc2C(N)=O)NC(=O)[C@H](NC(=O)c2ncco2)C(C)C)CSSC[C@@H](C(=O)N[C@@H](Cc2cccnc2)C(N)=O)NC(=O)[C@H](Cc2ccccc2)NC(=O)[C@@H]2CCCN2C(=O)CNC(=O)[C@H](C(C)C)NC(=O)[C@H](CC(=O)O)NC1=O [Compound 30, Oxazole-2-carbonyl-D-Val-Phe(2-Cbm)-c(Cys-Orn(iPr)-Asp-Val-Gly-Pro-Phe-Cys)-3Pal-NH2] (Oxazole2carbonyl-[dV][Phe(2-CONH2)]C[Orn(iPr)]DVGPFC[3Pal]-NH2; disulfide 3-10) | 98 | 700 | 6628 | 100 | 0.11
CC(C)[C@@H]1NC(=O)[C@H](CC(=O)O)NC(=O)[C@H](CCCN)NC(=O)[C@@H](NC(=O)[C@H](Cc2ccc(O)cc2)NC(=O)[C@H](NC(=O)c2ncccc2F)C(C)C)CSSC[C@@H](C(=O)N[C@@H](Cc2cccnc2)C(N)=O)NC(=O)[C@H](Cc2ccc(CO)cc2)NC(=O)[C@@H]2CCCN2C(=O)CNC1=O [Compound 29, Picolinoyl(3-F)-D-Val-Tyr-c(Cys-Orn-Asp-Val-Gly-Pro-Phe(4-CH2OH)-Cys)-3Pal-NH2] (X1-[dV]YC[Orn]DVGP[X5]C[3Pal]-NH2; disulfide 3-10) | 98 | 148 | 1699 | 100 | 0.09
CC(C)[C@@H]1NC(=O)[C@H](CC(=O)O)NC(=O)[C@H](CCCN)NC(=O)[C@@H](NC(=O)[C@H](Cc2ccc(O)cc2)NC(=O)[C@H](NC(=O)c2ccc(F)cn2)C(C)C)CSSC[C@@H](C(=O)N[C@@H](Cc2cccnc2)C(N)=O)NC(=O)[C@H](Cc2ccccc2)NC(=O)[C@@H]2CCCN2C(=O)CNC1=O [Compound 12, Picolinoyl(5-F)-D-Val-Tyr-c(Cys-Orn-Asp-Val-Gly-Pro-Phe-Cys)-3Pal-NH2] ({Picolinoyl(5-F)}-[dV]YC[Orn]DVGPFC[3Pal]-NH2; disulfide 3-10) | 100 | 18 | 172 | 100 | 0.11
CC(C)[C@@H]1NC(=O)[C@H](CC(=O)O)NC(=O)[C@H](CCCNC(=N)N)NC(=O)[C@@H](NC(=O)[C@H](Cc2ccc(O)cc2)NC(=O)[C@H](NC(=O)c2ncccc2F)C(C)C)CSSC[C@@H](C(=O)N[C@@H](Cc2cccnc2)C(N)=O)NC(=O)[C@H](Cc2ccccc2)NC(=O)[C@@H]2CCCN2C(=O)CNC1=O [Compound 17] (X1-[dV]YCRDVGPFC[3Pal]-NH2; disulfide 3-10) | 100 | 7.1 | 148 | 100 | 0.05
CC(C)[C@@H]1NC(=O)[C@H](CC(=O)O)NC(=O)[C@H](CCCNC(=N)N)NC(=O)[C@@H](NC(=O)[C@H](Cc2ccc(O)cc2)NC(=O)[C@H](NC(=O)c2ncc(F)cc2F)C(C)C)CSSC[C@@H](C(=O)N[C@@H](Cc2cccnc2)C(N)=O)NC(=O)[C@H](Cc2ccccc2)NC(=O)[C@@H]2CCCN2C(=O)CNC1=O [Compound 35] ({Picolinoyl(3,5-F2)}-[dV]YCRDVGPFC[3Pal]-NH2; disulfide 3-10) | 101 | 33 | 580 | 100 | 0.06
CC(C)NCCC[C@@H]1NC(=O)[C@@H](NC(=O)[C@H](Cc2ccc(O)cc2)NC(=O)[C@H](NC(=O)c2ncc(F)cc2F)C(C)C)CSSC[C@@H](C(=O)N[C@@H](Cc2cccnc2)C(N)=O)NC(=O)[C@H](Cc2ccccc2)NC(=O)[C@@H]2CCCN2C(=O)CNC(=O)[C@H](C(C)C)NC(=O)[C@H](CC(=O)O)NC1=O [Compound 62, Picolinoyl(3,5-F2)-D-Val-Tyr-c(Cys-Orn(iPr)-Asp-Val-Gly-Pro-Phe-Cys)-3Pal-NH2] ({Picolinoyl(3,5-F2)}-[dV]YC[Orn(iPr)]DVGPFC[3Pal]-NH2; disulfide 3-10) | 100 | 85 | 592 | 100 | 0.14
CC(C)[C@@H]1NC(=O)[C@H](CC(=O)O)NC(=O)[C@H](CCCNC(=N)N)NC(=O)[C@@H](NC(=O)[C@H](Cc2ccc(O)cc2)NC(=O)[C@H](NC(=O)c2cc(F)ccn2)C(C)C)CSSC[C@@H](C(=O)N[C@@H](Cc2cccnc2)C(N)=O)NC(=O)[C@H](Cc2ccccc2)NC(=O)[C@@H]2CCCN2C(=O)CNC1=O [Compound 18] (X7-[dV]YCRDVGPFC[3Pal]-NH2; disulfide 3-10) | 98 | 8.1 | 52 | 100 | 0.16
